21 compounds from patent US20230286958A1, “PLASMA KALLIKREIN INHIBITORS” (Merck Sharp & Dohme LLC, priority 2020, published 2023) can be followed below.

One assay addresses Human plasma kallikrein (Homo sapiens (Human), UniProt P03952). Kind of assay: Kallikrein Assay (fluorogenic substrate Acetyl-K-P-R-AFC). The assay is classed as biochemical. Particulars: Plasma Kallikrein (PKal). The method in brief:
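Ki is derived from IC50 with the Cheng-Prusoff equation, and IC50 from the inflection point of a four-parameter logistic curve. The rate of AFC release is read with 0.5 nM purified enzyme and […] substrate at room temperature or 37 °C.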

For another assay, the target named is human Factor XIa (Homo sapiens (Human), UniProt P03951). The assay is described as follows: Factor XIa Assay (fluorogenic substrate GPR-AFC). It is filed as biochemical. Particulars: Factor XIa (FXIa).
Chain of human Factor XIa (P03951 388-625 limits assumed): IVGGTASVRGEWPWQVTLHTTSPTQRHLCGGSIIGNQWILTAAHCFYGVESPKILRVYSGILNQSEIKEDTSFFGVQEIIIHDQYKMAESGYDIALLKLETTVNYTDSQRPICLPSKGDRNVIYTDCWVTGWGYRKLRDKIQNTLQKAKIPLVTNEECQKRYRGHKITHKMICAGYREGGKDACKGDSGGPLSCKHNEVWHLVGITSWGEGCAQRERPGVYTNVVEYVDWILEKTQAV
Chain of human Factor XIa (P03951 19-387 partner limits assumed): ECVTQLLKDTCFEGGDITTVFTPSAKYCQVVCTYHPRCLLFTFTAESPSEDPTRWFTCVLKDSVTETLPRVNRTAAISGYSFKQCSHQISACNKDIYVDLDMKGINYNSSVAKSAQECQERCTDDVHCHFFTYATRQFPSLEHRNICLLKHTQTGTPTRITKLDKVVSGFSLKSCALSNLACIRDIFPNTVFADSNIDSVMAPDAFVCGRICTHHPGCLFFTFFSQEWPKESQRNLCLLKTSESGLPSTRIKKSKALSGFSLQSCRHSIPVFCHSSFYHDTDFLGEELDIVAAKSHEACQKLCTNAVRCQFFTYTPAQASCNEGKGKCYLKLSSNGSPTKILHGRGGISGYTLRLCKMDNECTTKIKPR

Chain of Human plasma kallikrein (P03952 391-638): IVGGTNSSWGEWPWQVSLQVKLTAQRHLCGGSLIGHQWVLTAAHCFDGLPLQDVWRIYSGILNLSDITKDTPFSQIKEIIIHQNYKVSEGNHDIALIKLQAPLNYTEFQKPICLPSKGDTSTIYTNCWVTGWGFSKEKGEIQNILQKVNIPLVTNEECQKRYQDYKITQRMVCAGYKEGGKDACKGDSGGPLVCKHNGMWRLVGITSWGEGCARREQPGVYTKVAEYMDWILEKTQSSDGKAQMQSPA
Chain of Human plasma kallikrein (P03952 20-390 partner): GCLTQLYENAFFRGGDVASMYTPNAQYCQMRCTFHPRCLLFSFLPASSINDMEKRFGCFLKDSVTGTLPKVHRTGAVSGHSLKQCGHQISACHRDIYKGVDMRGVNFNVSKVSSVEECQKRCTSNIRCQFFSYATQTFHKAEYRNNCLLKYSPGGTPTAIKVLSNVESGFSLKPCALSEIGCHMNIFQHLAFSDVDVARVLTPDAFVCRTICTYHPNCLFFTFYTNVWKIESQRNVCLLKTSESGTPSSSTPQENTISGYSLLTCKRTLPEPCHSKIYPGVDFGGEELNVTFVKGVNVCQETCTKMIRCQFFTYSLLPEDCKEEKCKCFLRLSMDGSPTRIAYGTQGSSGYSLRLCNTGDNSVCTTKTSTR

One may read the IC50 as the concentration that gives 50% inhibition. On to `[2H]C([2H])(O)c1ncc(-c2c(C(F)F)ccc(Cl)c2F)nc1C(=O)Nc1cnn([C@@H](C)c2cnc(N3C[C@H]4C[C@H]4C3=O)nc2)c1` [Example 182, 6-(3-Chloro-6-(difluoromethyl)-2-fluorophenyl)-3-(hydroxymethyl-d2)-N-(1-((S)-1-(2-((1R,5S)-2-oxo-3-azabicyclo[3.1.0]hexan-3-yl)pyrimidin-5-yl)ethyl)-1H-pyrazol-4-yl)pyrazine-2-carboxamide], for which the figures for the IC50 against Human plasma kallikrein and against human Factor XIa were 0.7 nM and 572 nM, respectively.

Turning to `Cc1nc(N2C[C@H]3C[C@H]3C2=O)ncc1Cn1cc(NC(=O)c2nc(-c3c(C(F)F)ccc(Cl)c3F)cnc2C)nn1` [Example 183, 6-(3-Chloro-6-(difluoromethyl)-2-fluorophenyl)-3-methyl-N-(1-((4-methyl-2-((1R,5S)-2-oxo-3-azabicyclo[3.1.0]hexan-3-yl)pyrimidin-5-yl)methyl)-1H-1,2,3-triazol-4-yl)pyrazine-2-carboxamide], the figures for the half-inhibitory concentration (IC50) on Human plasma kallikrein and on human Factor XIa were 30.6 nM and greater than 10000 nM, respectively.

For `Cc1nc(N2C[C@H]3C[C@H]3C2=O)ncc1Cn1ncc(NC(=O)c2nc(-c3c(C(F)F)ccc(Cl)c3F)cnc2C)n1` [Example 184, 6-(3-Chloro-6-(difluoromethyl)-2-fluorophenyl)-3-methyl-N-(2-((4-methyl-2-((1R,5S)-2-oxo-3-azabicyclo[3.1.0]hexan-3-yl)pyrimidin-5-yl)methyl)-2H-1,2,3-triazol-4-yl)pyrazine-2-carboxamide], the IC50 at Human plasma kallikrein came to 8.1 nM; on human Factor XIa, 7730 nM.

On to `Cc1ncc(-c2c(C(F)F)ccc(Cl)c2F)nc1C(=O)Nc1cn(Cc2cnc(N3C[C@H]4C[C@H]4C3=O)c(C)n2)nn1` [Example 185, 6-(3-Chloro-6-(difluoromethyl)-2-fluorophenyl)-3-methyl-N-(1-((6-methyl-5-((1R,5S)-2-oxo-3-azabicyclo[3.1.0]hexan-3-yl)pyrazin-2-yl)methyl)-1H-1,2,3-triazol-4-yl)pyrazine-2-carboxamide], for which the concentration for half-maximal inhibition (IC50) at Human plasma kallikrein was found to be 2.4 nM; at human Factor XIa, 3180 nM.

For the compound `Cc1ncc(-c2c(C(F)F)ccc(Cl)c2F)nc1C(=O)Nc1cnn(Cc2cnc(N3C[C@H]4C[C@H]4C3=O)c(C)n2)n1` [Example 186, 6-(3-Chloro-6-(difluoromethyl)-2-fluorophenyl)-3-methyl-N-(2-((6-methyl-5-((1R,5S)-2-oxo-3-azabicyclo[3.1.0]hexan-3-yl)pyrazin-2-yl)methyl)-2H-1,2,3-triazol-4-yl)pyrazine-2-carboxamide], the figures for the half-inhibitory concentration (IC50) against Human plasma kallikrein and against human Factor XIa were 1.4 nM and 1380 nM, respectively.

Consider `Cc1cc(Cn2ncc(NC(=O)c3nc(-c4c(C(F)F)ccc(Cl)c4F)cnc3C)n2)cnc1N1C[C@H]2C[C@H]2C1=O` [Example 187, 6-(3-Chloro-6-(difluoromethyl)-2-fluorophenyl)-3-methyl-N-(2-((5-methyl-6-((1R,5S)-2-oxo-3-azabicyclo[3.1.0]hexan-3-yl)pyridin-3-yl)methyl)-2H-1,2,3-triazol-4-yl)pyrazine-2-carboxamide], for which the concentration for half-maximal inhibition (IC50) on Human plasma kallikrein came out at 4.3 nM; against human Factor XIa, 5670 nM.

For `Cc1nc(N2C[C@H]3C[C@H]3C2=O)ncc1C1(n2cc(NC(=O)c3nc(-c4c(C(F)F)ccc(Cl)c4F)cnc3C)cn2)CCC1` [Example 188, 6-(3-Chloro-6-(difluoromethyl)-2-fluorophenyl)-3-methyl-N-(1-(1-(4-methyl-2-((1R,5S)-2-oxo-3-azabicyclo[3.1.0]hexan-3-yl)pyrimidin-5-yl)cyclobutyl)-1H-pyrazol-4-yl)pyrazine-2-carboxamide], the concentration for half-maximal inhibition (IC50) on Human plasma kallikrein amounted to 6.5 nM; against human Factor XIa, 3110 nM.

As for `Cc1ncc(-c2c(C(F)F)ccc(Cl)c2F)nc1C(=O)Nc1cnn([C@@H](C)c2cnc(N3C[C@H]4C[C@H]4C3=O)c(N)c2)c1` [Example 189], the half-maximal inhibitory concentration (IC50) against Human plasma kallikrein came to 1.3 nM; on human Factor XIa, 667 nM.

Consider `Cc1ncc(-c2c(C(F)F)ccc(Cl)c2F)nc1C(=O)Nc1cnn([C@H](C)c2cnc(N3C[C@H]4C[C@H]4C3=O)c(N)c2)c1` [Example 190], for which the half-inhibitory concentration (IC50) was 0.7 nM against Human plasma kallikrein and 1040 nM against human Factor XIa.

With `Cc1ncc(-c2c(C(F)F)ccc(Cl)c2F)nc1C(=O)Nc1cnn(Cc2cnc(N3C[C@H]4C[C@H]4C3=O)c(N)c2)c1` [Example 191, N-(1-((5-Amino-6-((1R,5S)-2-oxo-3-azabicyclo[3.1.0]hexan-3-yl)pyridin-3-yl)methyl)-1H-pyrazol-4-yl)-6-(3-chloro-6-(difluoromethyl)-2-fluorophenyl)-3-methylpyrazine-2-carboxamide], the IC50 against Human plasma kallikrein is 1.1 nM; at human Factor XIa, 111 nM.

On to `C[C@@H](c1cnc(N2C[C@H]3C[C@H]3C2=O)nc1)n1cc(NC(=O)c2nc(-c3c(C(F)F)ccc(Cl)c3F)cnc2COC(C)(C)C)cn1` [Example 192, 3-(tert-Butoxymethyl)-6-(3-chloro-6-(difluoromethyl)-2-fluorophenyl)-N-(1-((S)-1-(2-((1R,5S)-2-oxo-3-azabicyclo[3.1.0]hexan-3-yl)pyrimidin-5-yl)ethyl)-1H-pyrazol-4-yl)pyrazine-2-carboxamide], for which the IC50 on Human plasma kallikrein stood at 4.4 nM; at human Factor XIa, 6830 nM.

With `C[C@@H](c1cnc(N2C[C@H]3C[C@H]3C2=O)nc1)n1cc(NC(=O)c2nc(-c3c(C(F)F)ccc(Cl)c3F)cnc2CO)cn1` [Example 193], the figures for the 50% inhibitory concentration (IC50) against Human plasma kallikrein and against human Factor XIa were 0.4 nM and 441 nM, respectively.

For `Cc1nc(N2CCN(C)C2=O)ncc1[C@H](C)n1cc(NC(=O)c2nc(-c3c(C(F)F)ccc(Cl)c3F)cnc2C)cn1` [Example 207, (S)-6-(3-Chloro-6-(difluoromethyl)-2-fluorophenyl)-3-methyl-N-(1-(1-(4-methyl-2-(3-methyl-2-oxoimidazolidin-1-yl)pyrimidin-5-yl)ethyl)-1H-pyrazol-4-yl)pyrazine-2-carboxamide], the figures for the 50% inhibitory concentration (IC50) against Human plasma kallikrein and on human Factor XIa were 8.6 nM and 3280 nM, respectively.

For the compound `Cc1ncc(-c2c(C(F)F)ccc(Cl)c2F)nc1C(=O)Nc1cnn(Cc2ncc(N3C[C@H]4C[C@H]4C3=O)c(C)c2F)c1` [Example 215, 6-(3-Chloro-6-(difluoromethyl)-2-fluorophenyl)-N-(1-((3-fluoro-4-methyl-5-((1R,5S)-2-oxo-3-azabicyclo[3.1.0]hexan-3-yl)pyridin-2-yl)methyl)-1H-pyrazol-4-yl)-3-methylpyrazine-2-carboxamide], the half-maximal inhibitory concentration (IC50) was 7.8 nM on Human plasma kallikrein and greater than 10000 nM at human Factor XIa.

Consider `Cc1ncc(-c2c(C(F)F)ccc(Cl)c2F)nc1C(=O)Nc1cnn([C@H](C)c2cnc(N3C[C@H]4C[C@H]4C3=O)c(O)c2)c1` [Example 216, 6-(3-Chloro-6-(difluoromethyl)-2-fluorophenyl)-N-(1-((R)-1-(5-hydroxy-6-((1R,5S)-2-oxo-3-azabicyclo[3.1.0]hexan-3-yl)pyridin-3-yl)ethyl)-1H-pyrazol-4-yl)-3-methylpyrazine-2-carboxamide], for which the figures for the IC50 against Human plasma kallikrein and at human Factor XIa were 2.8 nM and 8420 nM, respectively.

As to `Cc1ncc(-c2c(C(F)F)ccc(Cl)c2F)nc1C(=O)Nc1cnn([C@@H](C)c2cnc(N3C[C@H]4C[C@H]4C3=O)c(O)c2)c1` [Example 217, 6-(3-Chloro-6-(difluoromethyl)-2-fluorophenyl)-N-(1-((S)-1-(5-hydroxy-6-((1R,5S)-2-oxo-3-azabicyclo[3.1.0]hexan-3-yl)pyridin-3-yl)ethyl)-1H-pyrazol-4-yl)-3-methylpyrazine-2-carboxamide], the IC50 at Human plasma kallikrein was found to be 14.9 nM; on human Factor XIa, 4150 nM.

As to `Cc1ncc(-c2c(C(F)F)ccc(Cl)c2F)nc1C(=O)Nc1cnn(C2(c3cnc(N4C[C@H]5C[C@H]5C4=O)c(C)n3)CC2)c1` [Example 220, 6-(3-Chloro-6-(difluoromethyl)-2-fluorophenyl)-3-methyl-N-(1-(1-(6-methyl-5-((1R,5S)-2-oxo-3-azabicyclo[3.1.0]hexan-3-yl)pyrazin-2-yl)cyclopropyl)-1H-pyrazol-4-yl)pyrazine-2-carboxamide], the IC50 against Human plasma kallikrein is 7.8 nM; against human Factor XIa, greater than 10000 nM.

With `COCc1ncc(-c2c(C(F)F)ccc(Cl)c2F)nc1C(=O)Nc1cnn(C2(c3cnc(N4C[C@H]5C[C@H]5C4=O)c(C)n3)CC2)c1` [Example 221, 6-(3-Chloro-6-(difluoromethyl)-2-fluorophenyl)-3-(methoxymethyl)-N-(1-(1-(6-methyl-5-((1R,5S)-2-oxo-3-azabicyclo[3.1.0]hexan-3-yl)pyrazin-2-yl)cyclopropyl)-1H-pyrazol-4-yl)pyrazine-2-carboxamide], the IC50 at Human plasma kallikrein is 14.9 nM; against human Factor XIa it was greater than 10000 nM.

Regarding `Cc1nc(C2(n3cc(NC(=O)c4nc(-c5c(C(F)F)ccc(Cl)c5F)cnc4COC(C)(C)C)cn3)CC2)cnc1N1C[C@H]2C[C@H]2C1=O` [Example 222, 3-(tert-Butoxymethyl)-6-(3-chloro-6-(difluoromethyl)-2-fluorophenyl)-N-(1-(1-(6-methyl-5-((1R,5S)-2-oxo-3-azabicyclo[3.1.0]hexan-3-yl)pyrazin-2-yl)cyclopropyl)-1H-pyrazol-4-yl)pyrazine-2-carboxamide], the figures for the IC50 on Human plasma kallikrein and on human Factor XIa were 16.7 nM and greater than 10000 nM, respectively.

Regarding `Cc1nc(C2(n3cc(NC(=O)c4nc(-c5c(C(F)F)ccc(Cl)c5F)cnc4CO)cn3)CC2)cnc1N1C[C@H]2C[C@H]2C1=O` [Example 223, 6-(3-Chloro-6-(difluoromethyl)-2-fluorophenyl)-3-(hydroxymethyl)-N-(1-(1-(6-methyl-5-((1R,5S)-2-oxo-3-azabicyclo[3.1.0]hexan-3-yl)pyrazin-2-yl)cyclopropyl)-1H-pyrazol-4-yl)pyrazine-2-carboxamide], the 50% inhibitory concentration (IC50) against Human plasma kallikrein stood at 1 nM; at human Factor XIa, 1840 nM.

On to `Cc1cc([C@H](C)n2cc(NC(=O)c3nc(-c4c(OC(F)F)ccc(Cl)c4F)cnc3CO)cn2)cnc1N1C[C@H]2C[C@H]2C1=O` [Example 226], for which the values for the IC50 at Human plasma kallikrein and against human Factor XIa were 0.4 nM and 41 nM, respectively.
